Experimental data from article PMC3395597, “Structural Basis for the ABO Blood-Group Dependence of Plasmodium falciparum Rosetting” (PLoS Pathogens, 2012).

Target: Head(wt) (NTS-DBL1α1-CIDR1γ of PfEMP1-VarO) (Plasmodium falciparum, UniProt B7T1P0)
Experiment: surface plasmon resonance (Biacore […]), immobilised trisaccharide-BSA
Type: binding
Settings: labelled compound: multivalent BSA conjugate, 6 atom spacer, average 21 sugar residues per BSA; PBS, 25 °C; protein 10 nM-1 µM

C[C@@H]1O[C@@H](O[C@H]2C(O)O[C@H](CO)[C@H](O)[C@@H]2O[C@H]2O[C@H](CO)[C@H](O)[C@H](O)[C@H]2O)[C@@H](O)[C@H](O)[C@@H]1O (stereo partly shown) [blood group B trisaccharide]
surface plasmon resonance (Biacore 2000), immobilised trisaccharide-BSA: Direct binding of the recombinant Head(wt)domain to the blood group A and B trisaccharides
